The values below come from US5824653A, “Anthelmintic compositions for equidae” (priority 1994, dated 1998).

The subject of data set [1] is Strongylidase. Nature of the data set: Trial 2: modified critical test, efficacy against Strongylidase in horses. As to conditions: Trial 2, horses. It is filed as in vivo. On the procedure: (§1) The method of evaluating the activity of the formulation was a modified critical test (Lyons et al., 1986) which involved killing the horses 24 hours after treatment.
(§2) Efficacy is the number of worms count dead and removed versus the number of worms count alive and not removed (scolex attached for Anaplocephala perfoliata).
(§3) A trial involving Ivermectin drench (1 ml per 10 kg of body weight equivalent to 0.2 mg of Ivermectin per kg B.W.), praziquantel drench (0.5 to 2 mg of praziquantel per kg of body weight), and formulations in accordance with Examples 6, 7 and 8.
(§4) Seven groups of 6 horses per group were involved in the study. Area of origin of the horses was well known for having internal parasitism problem and specifically tapeworms (Anoplocephala perfoliata) infestation.

The conditions of data set [2]: cited from earlier work.
The subject of data set [3] is Anoplocephala perfoliata. Nature of the data set: Trial 1: modified critical test, efficacy against Anoplocephala perfoliata in horses. It counts as in vivo. As to conditions: Trial 1, horses. On the procedure:
as §1, §2
(§5) A trial involving abamectin paste (1 ml per 20 kg of body weight equivalent to 0.2 mg of Abamectin per kg B.W.), praziquantel paste (0.1 to 5 mg of Praziquantel per kg of body weight), and formulations in accordance with examples 1,2,3,4 and 5.
(§6) Eleven groups of ten horses per group were involved in the study. Area of origin of the horses was well known for having internal parasitism problem and specifically tapeworms (Anoplocephala perfoliata) infestation.

For data set [4], the system named is Anoplocephala perfoliata. Nature of the data set: Trial 2: modified critical test, efficacy against Anoplocephala perfoliata in horses. It counts as in vivo. As to conditions: Trial 2, horses. As to the method:
as §1, §2, §3, §4

Data set [5] is described as follows: Biodisponibility of praziquantel in horses. It counts as in vivo. The conditions noted are these: paste formula.
Data set [6] concerns Parascaris equorum. Nature of the data set: Trial 2: modified critical test, efficacy against Parascaris equorum in horses. It is filed as in vivo. The conditions noted are these: Trial 2, horses. On the procedure:
as §1, §2, §3, §4

Data set [7] relates to Gasterophilus spp. Briefly: Trial 1: modified critical test, efficacy against Gasterophilus spp. in horses. It is filed as in vivo. As to conditions: Trial 1, horses. On the procedure: as §1, §2, §5, §6
Data set [8] relates to Gasterophilus spp. Nature of the data set: Trial 2: modified critical test, efficacy against Gasterophilus spp. in horses. It is filed as in vivo. As to conditions: Trial 2, horses. As to the method: as §1, §2, §3, §4
Data set [9] deals with Parascaris equorum. Nature of the data set: Trial 1: modified critical test, efficacy against Parascaris equorum in horses. It counts as in vivo. As to conditions: Trial 1, horses. On the procedure:
as §1, §2, §5, §6

For data set [10], the system named is Strongylidase. Nature of the data set: Trial 1: modified critical test, efficacy against Strongylidase in horses. It is filed as in vivo. As to conditions: Trial 1, horses. On the procedure:
as §1, §2, §5, §6

For the compound `O=C(C1CCCCC1)N1CC(=O)N2CCc3ccccc3C2C1` (stereo not drawn) [Praziquantel, 2(cyclohexylcarbonyl)-1,2,3,6,7,11b-hexahydro-4H-pyrazino[2,1-a]isoquinolin-4-one], the “% Efficacy Strongylidase” value in data set [1] (praziquantel 0.5 mg/kg), in data set [1] (praziquantel 1 mg/kg), in data set [1] (praziquantel 2 mg/kg), in [10] (praziquantel 0.1 mg/kg), in data set [10] (praziquantel 0.5 mg/kg) and in [10] (praziquantel 1 mg/kg) was 0% in each case. For the same compound, the “% Efficacy Strongylidase” value in data set [10] (praziquantel 2 mg/kg) and in [10] (praziquantel 5 mg/kg) was 0% throughout. In addition, the solubility in water entry in data set [2] was “relatively insoluble”. Further, the “% Efficacy Anoplocephala perfoliata” value is listed as 0% in data set [3] (praziquantel 0.1 mg/kg); 27% in [3] (praziquantel 0.5 mg/kg); 51% in data set [3] (praziquantel 1 mg/kg); 71% in data set [3] (praziquantel 2 mg/kg); 33% in data set [3] (praziquantel 5 mg/kg); 21% in data set [4] (praziquantel 0.5 mg/kg). Also, the “% Efficacy Anoplocephala perfoliata” value in data set [4] (praziquantel 1 mg/kg) was found to be 43%; in data set [4] (praziquantel 2 mg/kg), 59%. Further, in [5], the biodisponibility of praziquantel entry is listed as “better biodisponibility”. In addition, the “% Efficacy Parascaris equorum” value in data set [6] (praziquantel 0.5 mg/kg), in data set [6] (praziquantel 1 mg/kg), in data set [6] (praziquantel 2 mg/kg), in [9] (praziquantel 0.1 mg/kg), in data set [9] (praziquantel 0.5 mg/kg) and in data set [9] (praziquantel 1 mg/kg) was 0% throughout. The “% Efficacy Parascaris equorum” value in [9] (praziquantel 2 mg/kg) and in data set [9] (praziquantel 5 mg/kg) was 0% each time. In addition, the “% Efficacy Gasterophilus spp.” value in data set [7] (praziquantel 0.1 mg/kg), in data set [7] (praziquantel 0.5 mg/kg), in [7] (praziquantel 1 mg/kg), in data set [7] (praziquantel 2 mg/kg), in [7] (praziquantel 5 mg/kg) and in [8] (praziquantel 0.5 mg/kg) was 0% each time. For the same compound, the “% Efficacy Gasterophilus spp.” value in data set [8] (praziquantel 1 mg/kg) and in data set [8] (praziquantel 2 mg/kg) was 0% in each case.
As to `CC[C@H](C)[C@H]1O[C@]2(CC[C@@H]1C)C[C@@H]1C[C@@H](C/C=C(\C)[C@@H](O[C@H]3C[C@H](OC)[C@@H](O[C@H]4C[C@H](OC)[C@@H](O)[C@H](C)O4)[C@H](C)O3)[C@@H](C)/C=C/C=C3\CO[C@@H]4[C@H](O)C(C)=C[C@@H](C(=O)O1)[C@]34O)O2` [Ivermectin], in data set [1] (ivermectin 0.2 mg/kg), the “% Efficacy Strongylidase” value is 100%. In addition, the “% Efficacy Anoplocephala perfoliata” value in [4] (ivermectin 0.2 mg/kg) is recorded as 0%. In addition, the “% Efficacy Parascaris equorum” value in [6] (ivermectin 0.2 mg/kg) is recorded as 100%. Moreover, the “% Efficacy Gasterophilus spp.” value in [8] (ivermectin 0.2 mg/kg) turned out to be 100%.
For Abamectin, in data set [3] (abamectin 0.2 mg/kg), the “% Efficacy Anoplocephala perfoliata” value is 0%. Also, the “% Efficacy Gasterophilus spp.” value in [7] (abamectin 0.2 mg/kg) came out at 100%. The “% Efficacy Parascaris equorum” value in data set [9] (abamectin 0.2 mg/kg) was found to be 100%. In data set [10] (abamectin 0.2 mg/kg), the “% Efficacy Strongylidase” value is recorded as 100%.
